From patent publication US8952024B2, “Herbicidal pyrimidone derivatives” (E I du Pont de Nemours and Company, priority 2009, dated 2015)

Assays:
Format in all cases: in vivo
[1] = system: ducksalad (Heteranthera limosa); experiment: Test B flooded paddy test; settings: for Plant response rating, Ducksalad: Flood (flooded paddy test), 13 to 15 days; for Ducksalad plant response rating: Flood, 31 g ai/ha, scale 0 to 100 (0 no effect, 100 complete control)
Method in brief: (§1)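 Greenhouse-held for 13 to 15 days, treated pots were compared visually with controls and scored 0–100 (0, no effect). Treatment had been made into paddy water kept at 3 cm above the soil, with plants at the 2-leaf stage.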

[2] = system: umbrella sedge (Cyperus difformis); experiment: Test B flooded paddy test; settings: for Plant response rating, Sedge, Umbrella: Flood (flooded paddy test), 13 to 15 days; for Sedge, Umbrella plant response rating: Flood, 31 g ai/ha, scale 0 to 100 (0 no effect, 100 complete control)
Method in brief: as §1

[3] = system: barnyardgrass (Echinochloa crus-galli); experiment: Test B flooded paddy test; settings: for Plant response rating, Barnyardgrass: Flood (flooded paddy test), 13 to 15 days; for Barnyardgrass plant response rating: Flood, 31 g ai/ha, scale 0 to 100 (0 no effect, 100 complete control)
Method in brief: as §1

rice (Oryza sativa) = experiment: Test B flooded paddy test; settings: for Plant response rating, Rice: Flood (flooded paddy test), 13 to 15 days; for Rice plant response rating: Flood, 31 g ai/ha, scale 0 to 100 (0 no effect, 100 complete control)
Method in brief: as §1

[4] = system: wheat (Triticum aestivum); experiment: Test A pre-/postemergence plant response; settings: for Wheat plant response rating: visual injury, 0 to 100 scale (0 no effect, 100 complete control), approx. ten days
Method in brief: (§2)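 Greenhouse pots of loam/sand received directed preemergence soil sprays or postemergence sprays (plants 2–10 cm, 1–2 leaf stage), compounds formulated in non-phytotoxic solvent with surfactant. Injury was rated visually versus untreated controls after about ten days on a 0 (no effect) to 100 (complete control) scale.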

[5] = system: morningglory (Ipomoea spp.); experiment: Test A pre-/postemergence plant response; settings: for Morningglory plant response rating: visual injury, 0 to 100 scale (0 no effect, 100 complete control), approx. ten days
Method in brief: as §2

[6] = system: giant foxtail (Setaria faberii); experiment: Test A pre-/postemergence plant response; settings: for Foxtail, Giant plant response rating: visual injury, 0 to 100 scale (0 no effect, 100 complete control), approx. ten days
Method in brief: as §2

corn (Zea mays) = experiment: Test A pre-/postemergence plant response; settings: for Corn plant response rating: visual injury, 0 to 100 scale (0 no effect, 100 complete control), approx. ten days
Method in brief: as §2

[7] = system: barnyardgrass (Echinochloa crus-galli); experiment: Test A pre-/postemergence plant response; settings: for Barnyardgrass plant response rating: visual injury, 0 to 100 scale (0 no effect, 100 complete control), approx. ten days
Method in brief: as §2

[8] = system: velvetleaf (Abutilon theophrasti); experiment: Test A pre-/postemergence plant response; settings: for Velvetleaf plant response rating: visual injury, 0 to 100 scale (0 no effect, 100 complete control), approx. ten days
Method in brief: as §2

[9] = system: large crabgrass (Digitaria sanguinalis); experiment: Test A pre-/postemergence plant response; settings: for Crabgrass, Large plant response rating: visual injury, 0 to 100 scale (0 no effect, 100 complete control), approx. ten days
Method in brief: as §2

[10] = system: pigweed (Amaranthus retroflexus); experiment: Test A pre-/postemergence plant response; settings: for Pigweed plant response rating: visual injury, 0 to 100 scale (0 no effect, 100 complete control), approx. ten days
Method in brief: as §2

[11] = 125 g ai/ha, scale 0 to 100, 0 is no effect, 100 is complete control
[12] = Postemergence, 125 g ai/ha, 0 to 100 scale where 0 is no effect and 100 is complete control
[13] = Preemergence, 125 g ai/ha, 0 to 100 scale, 0 = no effect, 100 = complete control
[14] = Preemergence, 500 g ai/ha, 0 to 100 scale, 0 = no effect, 100 = complete control
[15] = 250 g ai/ha, flooded paddy test, visual rating on 0 to 100 scale (0 no effect, 100 complete control) after 13 to 15 days
[16] = 62 g ai/ha, scale of 0 to 100 where 0 is no effect and 100 is complete control

COc1ccc(-n2c(-c3cccc(Br)c3)ncc(C(=O)C3=C(O)CCCC3=O)c2=O)cc1 [Compound 176]
Plant response rating, Ducksalad [1, 11]: 75
Ducksalad plant response rating [1]: 40
Plant response rating, Sedge, Umbrella [2, 11]: 85
Sedge, Umbrella plant response rating [2]: 70
Plant response rating, Barnyardgrass [3, 11]: 0
Barnyardgrass plant response rating [3]: 0
Plant response rating, Rice (rice (Oryza sativa); [11]): 20
Rice plant response rating (rice (Oryza sativa)): 15
Plant response rating, Wheat [4, 12]: 0
Wheat plant response rating ([4]; Postemergence, 500 g ai/ha): 0
Plant response rating, Wheat [4, 13]: 0
Plant response rating, Wheat [4, 14]: 0
Plant response rating, Morningglory [5, 12]: 0
Morningglory plant response rating ([5]; Postemergence, 500 g ai/ha): 50
Plant response rating, Morningglory [5, 13]: 0
Plant response rating, Morningglory [5, 14]: 20
Plant response rating, Foxtail, Giant [6, 12]: 10
Foxtail, Giant plant response rating ([6]; Postemergence, 500 g ai/ha): 70
Plant response rating, Foxtail, Giant [6, 13]: 10
Plant response rating, Foxtail, Giant [6, 14]: 50
Plant response rating, Corn (corn (Zea mays); [12]): 0
Corn plant response rating (corn (Zea mays); Postemergence, 500 g ai/ha): 10
Plant response rating, Corn (corn (Zea mays); [13]): 0
Plant response rating, Corn (corn (Zea mays); [14]): 0
Plant response rating, Barnyardgrass [7, 12]: 50
Barnyardgrass plant response rating ([7]; Postemergence, 500 g ai/ha): 90
Plant response rating, Barnyardgrass [7, 13]: 10
Plant response rating, Barnyardgrass [7, 14]: 30
Plant response rating, Velvetleaf [8, 12]: 80
Velvetleaf plant response rating ([8]; Postemergence, 500 g ai/ha): 90
Plant response rating, Velvetleaf [8, 13]: 10
Plant response rating, Velvetleaf [8, 14]: 50
Plant response rating, Crabgrass, Large [9, 12]: 10
Crabgrass, Large plant response rating ([9]; Postemergence, 500 g ai/ha): 60
Plant response rating, Crabgrass, Large [9, 13]: 0
Plant response rating, Crabgrass, Large [9, 14]: 20
Plant response rating, Pigweed [10, 12]: 100
Pigweed plant response rating ([10]; Postemergence, 500 g ai/ha): 100
Plant response rating, Pigweed [10, 13]: 60
Plant response rating, Pigweed [10, 14]: 100

Cc1cccc(-c2ncc(C(=O)C3=C(O)CCCC3=O)c(=O)n2-c2cc(F)ccc2C)c1 [Compound 178]
Plant response rating, Flood, Ducksalad [1, 15]: 100
Plant response rating, Ducksalad [1, 16]: 75
Plant response rating, Ducksalad [1, 11]: 100
Ducksalad plant response rating [1]: 75
Plant response rating, Flood, Sedge, Umbrella [2, 15]: 95
Plant response rating, Sedge, Umbrella [2, 16]: 85
Plant response rating, Sedge, Umbrella [2, 11]: 95
Sedge, Umbrella plant response rating [2]: 55
Plant response rating, Flood, Barnyardgrass [3, 15]: 80
Plant response rating, Barnyardgrass [3, 16]: 20
Plant response rating, Barnyardgrass [3, 11]: 60
Barnyardgrass plant response rating [3]: 20
Plant response rating, Flood, Rice (rice (Oryza sativa); [15]): 70
Plant response rating, Rice (rice (Oryza sativa); [16]): 20
Plant response rating, Rice (rice (Oryza sativa); [11]): 70
Rice plant response rating (rice (Oryza sativa)): 0
Plant response rating, Wheat [4, 12]: 0
Wheat plant response rating ([4]; Postemergence, 500 g ai/ha): 30
Plant response rating, Wheat [4, 13]: 0
Plant response rating, Wheat [4, 14]: 0
Plant response rating, Morningglory [5, 12]: 50
Morningglory plant response rating ([5]; Postemergence, 500 g ai/ha): 100
Plant response rating, Morningglory [5, 13]: 0
Plant response rating, Morningglory [5, 14]: 40
Plant response rating, Foxtail, Giant [6, 12]: 50
Foxtail, Giant plant response rating ([6]; Postemergence, 500 g ai/ha): 80
Plant response rating, Foxtail, Giant [6, 13]: 10
Plant response rating, Foxtail, Giant [6, 14]: 50
Plant response rating, Corn (corn (Zea mays); [12]): 0
Corn plant response rating (corn (Zea mays); Postemergence, 500 g ai/ha): 70
Plant response rating, Corn (corn (Zea mays); [13]): 0
Plant response rating, Corn (corn (Zea mays); [14]): 0
Plant response rating, Barnyardgrass [7, 12]: 80
Barnyardgrass plant response rating ([7]; Postemergence, 500 g ai/ha): 90
Plant response rating, Barnyardgrass [7, 13]: 0
Plant response rating, Barnyardgrass [7, 14]: 50
Plant response rating, Velvetleaf [8, 12]: 90
Velvetleaf plant response rating ([8]; Postemergence, 500 g ai/ha): 100
Plant response rating, Velvetleaf [8, 13]: 0
Plant response rating, Velvetleaf [8, 14]: 60
Plant response rating, Crabgrass, Large [9, 12]: 50
Crabgrass, Large plant response rating ([9]; Postemergence, 500 g ai/ha): 80
Plant response rating, Crabgrass, Large [9, 13]: 10
Plant response rating, Crabgrass, Large [9, 14]: 70
Plant response rating, Pigweed [10, 12]: 60
Pigweed plant response rating ([10]; Postemergence, 500 g ai/ha): 80
Plant response rating, Pigweed [10, 13]: 0
Plant response rating, Pigweed [10, 14]: 40

O=C1CCCC(O)=C1C(=O)c1cnc(-c2cc(F)cc(F)c2)n(CC2CCCO2)c1=O (centres unmarked) [Compound 180]
Plant response rating, Ducksalad [1, 11]: 75
Ducksalad plant response rating [1]: 60
Plant response rating, Sedge, Umbrella [2, 11]: 65
Sedge, Umbrella plant response rating [2]: 20
Plant response rating, Barnyardgrass [3, 11]: 15
Barnyardgrass plant response rating [3]: 0
Plant response rating, Rice (rice (Oryza sativa); [11]): 30
Rice plant response rating (rice (Oryza sativa)): 15
Plant response rating, Wheat [4, 12]: 0
Wheat plant response rating ([4]; Postemergence, 500 g ai/ha): 30
Plant response rating, Wheat [4, 13]: 0
Plant response rating, Wheat [4, 14]: 20
Plant response rating, Morningglory [5, 12]: 40
Morningglory plant response rating ([5]; Postemergence, 500 g ai/ha): 100
Plant response rating, Morningglory [5, 13]: 0
Plant response rating, Foxtail, Giant [6, 12]: 70
Foxtail, Giant plant response rating ([6]; Postemergence, 500 g ai/ha): 100
Plant response rating, Foxtail, Giant [6, 13]: 30
Plant response rating, Foxtail, Giant [6, 14]: 70
Plant response rating, Corn (corn (Zea mays); [12]): 10
Corn plant response rating (corn (Zea mays); Postemergence, 500 g ai/ha): 40
Plant response rating, Corn (corn (Zea mays); [13]): 0
Plant response rating, Corn (corn (Zea mays); [14]): 0
Plant response rating, Barnyardgrass [7, 12]: 90
Barnyardgrass plant response rating ([7]; Postemergence, 500 g ai/ha): 100
Plant response rating, Barnyardgrass [7, 13]: 30
Plant response rating, Barnyardgrass [7, 14]: 80
Plant response rating, Velvetleaf [8, 12]: 100
Velvetleaf plant response rating ([8]; Postemergence, 500 g ai/ha): 100
Plant response rating, Velvetleaf [8, 13]: 80
Plant response rating, Velvetleaf [8, 14]: 100
Plant response rating, Crabgrass, Large [9, 12]: 90
Crabgrass, Large plant response rating ([9]; Postemergence, 500 g ai/ha): 100
Plant response rating, Crabgrass, Large [9, 13]: 80
Plant response rating, Crabgrass, Large [9, 14]: 100
Plant response rating, Pigweed [10, 12]: 100
Pigweed plant response rating ([10]; Postemergence, 500 g ai/ha): 100
Plant response rating, Pigweed [10, 13]: 90
Plant response rating, Pigweed [10, 14]: 100

CCOCCn1c(-c2cc(F)cc(F)c2)ncc(C(=O)C2=C(O)CCCC2=O)c1=O [Compound 182]
Plant response rating, Ducksalad [1, 11]: 85
Ducksalad plant response rating [1]: 60
Plant response rating, Sedge, Umbrella [2, 11]: 75
Sedge, Umbrella plant response rating [2]: 50
Plant response rating, Barnyardgrass [3, 11]: 0
Barnyardgrass plant response rating [3]: 0
Plant response rating, Rice (rice (Oryza sativa); [11]): 0
Rice plant response rating (rice (Oryza sativa)): 0
Plant response rating, Wheat [4, 12]: 0
Wheat plant response rating ([4]; Postemergence, 500 g ai/ha): 50
Plant response rating, Wheat [4, 13]: 0
Plant response rating, Wheat [4, 14]: 50
Plant response rating, Morningglory [5, 12]: 100
Morningglory plant response rating ([5]; Postemergence, 500 g ai/ha): 100
Plant response rating, Morningglory [5, 13]: 70
Plant response rating, Morningglory [5, 14]: 80
Plant response rating, Foxtail, Giant [6, 12]: 50
Foxtail, Giant plant response rating ([6]; Postemergence, 500 g ai/ha): 80
Plant response rating, Foxtail, Giant [6, 13]: 50
Plant response rating, Foxtail, Giant [6, 14]: 80
Plant response rating, Corn (corn (Zea mays); [12]): 0
Corn plant response rating (corn (Zea mays); Postemergence, 500 g ai/ha): 20
Plant response rating, Corn (corn (Zea mays); [13]): 0
Plant response rating, Corn (corn (Zea mays); [14]): 20
Plant response rating, Barnyardgrass [7, 12]: 70
Barnyardgrass plant response rating ([7]; Postemergence, 500 g ai/ha): 90
Plant response rating, Barnyardgrass [7, 13]: 70
Plant response rating, Barnyardgrass [7, 14]: 90
Plant response rating, Velvetleaf [8, 12]: 100
Velvetleaf plant response rating ([8]; Postemergence, 500 g ai/ha): 100
Plant response rating, Velvetleaf [8, 13]: 70
Plant response rating, Velvetleaf [8, 14]: 100
Plant response rating, Crabgrass, Large [9, 12]: 80
Crabgrass, Large plant response rating ([9]; Postemergence, 500 g ai/ha): 90
Plant response rating, Crabgrass, Large [9, 13]: 100
Plant response rating, Crabgrass, Large [9, 14]: 100
Plant response rating, Pigweed [10, 12]: 80
Pigweed plant response rating ([10]; Postemergence, 500 g ai/ha): 100
Plant response rating, Pigweed [10, 13]: 90
Plant response rating, Pigweed [10, 14]: 100
